Columns and labels:
U1 cells [1] = test: DC-driven HIV reactivation from U1 cells (moDC co-culture); assay type: cell-based; conditions: moDCs treated with TGF-β1 10 ng/ml for last 2 days, with or without galunisertib; 18 hrs co-culture
Procedure: (§1) CD14^+ cells were isolated from PBMC using the Miltenyi CD14^+ beads. Monocyte-derived DCs (moDCs) were obtained from CD14+ cells cultured in GM-CSF and IL-4 as previously described (55). At day 4 of moDCs differentiation, TGF-β1 (10 ng/ml R&D systems) was added to the moDCs to generate the TGF-β-DCs (or both TGF-β1 and galunisertib). At day 6, 2 days after TGF-1 addition, moDCs were phenotyped (in 3 donors; See Table 2 for antibodies list) and co-cultured with eFluor670 (eBioscience)-labelled U1 at 3:1 U1:DC ratio (5 donors). After 18 hrs of co-culture, cells were stained for p24 intracellularly as described above.

primary CD4+ T cells = test: Primary CD4+ T cell model of HIV-1 latency, p24 ICS; assay type: cell-based, human; conditions: primary CD4+ T cells infected with HIV ADA; PMA 100 ng/ml; TGF-β1 10 ng/ml or galunisertib 1 μM
Procedure: Next, the impact of TGF-β1 on a primary model of HIV-1 latency was tested using freshly isolated CD4+ T cells. The experiment was based on the model by Berkhout and colleagues (50) with some modifications (FIG. 1F). Specifically, CD4+ T cells were isolated from HIV-1 uninfected, de-identified donor PBMC and activated them with PHA and IL-2 for 3 days before infection via spinoculation with HIV ADA. After extensive wash of the viral inoculum, cells were cultured 48 hrs in presence of T20 (enfuvirtide) to avoid viral spread beyond the cells with initial integrations. The overall initial infection achieved was very low despite the spinoculation step (˜0.1% of p24-gag+ cells, FIGS. 3A-3B).
Blood from de-identified donors was obtained from the New York Blood Bank and used as source of CD4 T cells for the primary model of HIV latency in vitro. Total CD4+ T cells were isolated with the CD4 T cells isolation kit (Miltenyi) and activated with 5 μg/ml of PHA and 50 U/ml of IL-2 for 3 days. After washing out the PHA, cells were infected with 200TCID50 of HIV-ADA (NIH HIV Reagent Program) in 12 or 24 wells/plates and spinoculated at 1200 g for 2 hrs at 25° C. After additional 3 hrs of incubation at 37° C., viral inoculum was washed and cells plated in presence of T20 (Enfurtivide acetate salt, 1 μM NIH AIDS reagent program). […]

moDCs = test: moDC phenotyping by flow cytometry; assay type: cell-based, human; conditions: moDCs generated in the presence of TGF-β1
Procedure: as §1

ACH-2 cells = test: PMA-induced HIV reactivation in ACH-2 cells, intracellular p24 staining; assay type: cell-based
Procedure: ACH2 cells and U1 cells were obtained through the NIH HIV Reagent Program, Division of AIDS, NIAID, NIH (contributed by Dr. Thomas Folks). […] In the HIV latency reactivation conditions, PMA (Phorbol 12-myristate 13-acetate, SigmaAldrich) was added at 100 ng/ml together with galunisertib or TGF-β1. After 18 hrs, cells were stained intracellularly for p24 using the KC57 antibody (NIH HIV Reagent Program) as previously described (74).

U1 cells [2] = test: PMA-induced HIV reactivation in U1 cells, intracellular p24 staining; assay type: cell-based; conditions: U1 cells
Procedure: ACH2 cells and U1 cells were obtained through the NIH HIV Reagent Program, Division of AIDS, NIAID, NIH (contributed by Dr. Thomas Folks). Cells ([…]) were cultured in triplicates in RPMI with 10% FBS and Pen/Strep in presence of TGF-β1 (10 ng/ml R&D systems), TGF-β1 and galunisertib (1 μM MedChemExpress), galunisertib alone or mock treated. In the HIV latency reactivation conditions, PMA (Phorbol 12-myristate 13-acetate, SigmaAldrich) was added at 100 ng/ml together with galunisertib or TGF-β1. After 18 hrs, cells were stained intracellularly for p24 using the KC57 antibody (NIH HIV Reagent Program) as previously described (74).

Substance: TGF-β1: exogenous TGF-β1 cytokine (R&D systems) added to cultures at 10 ng/ml
- frequency of p24-gag+ U1 cells in cocultures with TGF-β1-treated DCs versus untreated DCs (U1 cells [1]): significantly less
- PMA-induced frequency of p24-gag+ cells (primary CD4+ T cells): significantly inhibited
- DEC-205 expression on moDCs (moDCs): significantly lower
- decrease of the frequency of p24-gag+ cells in PMA-stimulated cultures (ACH-2 cells; ACH-2 cells, PMA 100 ng/ml, TGF-β1 10 ng/ml): ~20%
- baseline p24-gag levels in absence of PMA (ACH-2 cells; ACH-2 cells, TGF-β1 10 ng/ml): smaller but consistent decrease
- effect on p24+ cells in X-Vivo 15 medium without FBS (ACH-2 cells; control experiments, U1 and ACH-2, no FBS): more pronounced
- frequency of p24-gag+ cells in unstimulated cultures (U1 cells [2]; no PMA, TGF-β1 10 ng/ml or galunisertib 1 μM alone): below the baseline level
- reduction of the PMA driven increase in the frequency of p24-gag+ cells (U1 cells [2]; PMA 100 ng/ml, TGF-β1 10 ng/ml, 18 hrs): ~20%
